Data: patent US20260184663A1, “INDENE COMPOUNDS, PHARMACEUTICAL COMPOSITIONS THEREOF, AND THEIR THERAPEUTIC APPLICATIONS” (NucMito Pharmaceuticals co. Ltd., priority 2022, published 2026)

Assays:
Type in all cases: cell-based
[1] = tested on: A431 (epidermoid carcinoma); experiment: Antiproliferative activity (CCK-8 cell viability), A431; settings: Homo sapiens, 72 h; for inhibition at 3.3 µM: A-431, Compound concentration: 3.3 μM; for inhibition at 3.3 µM / inhibition at 10 µM: read-out: Antiproliferative activity in cancerous cells, A431 (inhibition of cell growth); for inhibition at 10 µM: A-431, Compound concentration: 10 μM
Outline: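 Cell viability of compound-treated A431 cells was measured with a Cell Counting Kit-8. Each well received 10 μL of CCK-8 after 72 h of compound exposure, followed by 4 h incubation at 37° C. and a 450 nm plate-reader measurement. Percent viability was calculated relative to DMSO controls across replicates.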

[2] = tested on: SW480 (colon cancer); experiment: Antiproliferative activity (CCK-8 cell viability), SW480; settings: Homo sapiens, 72 h, read-out: Antiproliferative activity in cancerous cells, SW480 (inhibition of cell growth); for inhibition at 3.3 µM: Compound concentration: 3.3 μM; for inhibition at 10 µM: Compound concentration: 10 μM
Outline: (§1)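 Cells were seeded at 2,000-5,000/well (HeLa in MEM, HepG2 and SW480 in DMEM, A549 in F-12K, all with 10% FBS) and treated with compound at 3.3, 10 or 30 μM for 72 h at 37° C. CCK-8 was added for 4 h, absorbance was read at 450 nm, and viability was expressed relative to DMSO-treated wells.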

[3] = tested on: A549 (lung adenocarcinoma); experiment: Antiproliferative activity (CCK-8 cell viability), A549; settings: Homo sapiens, 72 h, read-out: Antiproliferative activity in cancerous cells, A549 (inhibition of cell growth); for inhibition at 3.3 µM: Compound concentration: 3.3 μM; for inhibition at 10 µM: Compound concentration: 10 μM
Outline: as §1

[4] = tested on: HepG2 (liver cancer); experiment: Antiproliferative activity (CCK-8 cell viability), HepG2; settings: Homo sapiens, 72 h, read-out: Antiproliferative activity in cancerous cells, HepG2 (inhibition of cell growth); for inhibition at 3.3 µM: Compound concentration: 3.3 μM; for inhibition at 10 µM: Compound concentration: 10 μM
Outline: as §1

[5] = tested on: MDA-MB-231 (breast cancer); experiment: Antiproliferative activity (CCK-8 cell viability), MDA-MB-231; settings: Homo sapiens, 72 h, read-out: Antiproliferative activity in cancerous cells, MDA-MB-231 (inhibition of cell growth); for inhibition at 3.3 µM: Compound concentration: 3.3 μM; for inhibition at 10 µM: Compound concentration: 10 μM
Outline: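 In this CCK-8 viability assay, MDA-MB-231 cells maintained in Dulbecco's modified Eagle's medium containing 10% fetal bovine serum were placed in 96-well plates (2,000-5,000 cells/well) and treated with compound for 72 h at 37° C. A 4 h incubation with 10 μL CCK-8 followed, plates were read at 450 nm, and viability was expressed against DMSO vehicle wells across replicates.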

[6] = tested on: alpha-smooth muscle actin (α-SMA); experiment: Inhibition of TGF-β induced expression of alpha-smooth muscle actin (α-SMA) in CFSC cells (western blot); settings: compound at 10 μM, TGF-β (10 ng/mL), 24 hours, band intensity vs TGF-β only
Protocol: The ability of a compound to inhabit the TGF-β induced expression of alpha-smooth muscle actin (α-SMA) was evaluated in CCl4-treated fat storing (CFSC) cells. α-SMA is considered as a reliable marker of hepatic stellate cell activation and a key biomarker for liver fibrosis.
CFSC cells maintained in a DMEM medium supplemented with 10% fetal bovine serum were seeded to 12-well culture dishes and grown to a confluence of 60-70% the next day. Culture was changed to a serum-free DMEM medium, and the cells were treated with a compound at 10 μM in the presence of TGF-β (10 ng/mL). The cells were incubated for another 24 hours. All culture was maintained at 37° C. in 5% carbon dioxide.
An NP-40 lysate solution (50 mM Tris (pH 7.4), 150 mM NaCl, 1% NP-40) with EDTA free cocktail added was used to lyse the cells on ice for 30 min. The lysate was collected and centrifuged at 4° C. for 10 min at 12,000 rpm. The pellet was discarded and the supernatant was transferred to a new tube. Cell lysates were loaded with 5× loading buffer and boiled for 10 min, resolved by 10% SDS-polyacrylamide gel electrophoresis (SDS-PAGE), and transferred to PVDF membrane. The membrane was blocked with 5% skim milk in Tris-buffered saline and TWEEN® 20 (TBST; 10 mM Tris-HCl (pH 8.0), 150 mM NaCl, 0.1% TWEEN® 20) for 1 h at room temperature and then incubated with α-SMA and β-actin antibodies overnight at 4° C. After washing twice with TBST, the membrane was probed with a horseradish […] anti-immunoglobulin (1:5000 dilution) for 1 h at room temperature. After two subsequent rinses in TBST, immunoreactive products were reacted with ECL and visualized by a UVP CHEMSTUDIO™ imaging system. The western blotting bands are quantitated using an ImageJ software. The percentage of inhibition was obtained by calculating the percentage decrease in the band intensity compared to the one treated with TGF-β only.
The results are summarized in Table 1, where A represents a value no less of 80% inhibition, B represents a value less than […] but no less than […], C represents a value less than 50% but no less than 30% inhibition, and D represents a value less than 30% inhibition with a compound at 10 μM.

[7] = tested on: HeLa (cervical cancer); experiment: Antiproliferative activity (CCK-8 cell viability), HeLa; settings: Homo sapiens, 72 h, read-out: Antiproliferative activity in cancerous cells, HELA (inhibition of cell growth); for inhibition at 3.3 µM: Compound concentration: 3.3 μM; for inhibition at 10 µM: Compound concentration: 10 μM
Outline: as §1

[8] = tested on: B16F10 (malignant melanoma); experiment: Antiproliferative activity (CCK-8 cell viability), B16F10; settings: Mus musculus, 72 h; for inhibition at 3.3 µM: B16-F10, Compound concentration: 3.3 μM; for inhibition at 3.3 µM / inhibition at 10 µM: read-out: Antiproliferative activity in cancerous cells, B16F10 (inhibition of cell growth); for inhibition at 10 µM: B16-F10, Compound concentration: 10 μM
Outline: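 Attached B16F10 cells in 96-well plates were incubated with compound at 37° C for 72 h, followed by 10 μL CCK-8 reagent per well and a further 4 h incubation. A multi-well plate reader measured absorbance at 450 nm. Percent viability across replicates was calculated against DMSO vehicle-treated cells.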

Row | SMILES | inhibition at 3.3 µM [1] | inhibition at 10 µM [1] | inhibition at 3.3 µM [2] | inhibition at 10 µM [2] | inhibition at 3.3 µM [3] | inhibition at 10 µM [3] | inhibition at 3.3 µM [4] | inhibition at 10 µM [4] | inhibition at 3.3 µM [5] | inhibition at 10 µM [5] | inhibition at 10 µM [6] | inhibition at 3.3 µM [7] | inhibition at 10 µM [7] | inhibition at 3.3 µM [8] | inhibition at 10 µM [8] | inhibition at 30 µM ([1]; A-431, Compound concentration: 30 μM, read-out: Antiproliferative activity in cancerous cells, A431) | inhibition at 30 µM ([8]; B16-F10, Compound concentration: 30 μM, read-out: Antiproliferative activity in cancerous cells, B16F10)
1 | O=C(O)CC1=C(Cc2ccc(Oc3ccc(F)cc3)cc2)/C(=C/c2ccc(F)cc2)c2ccc(F)cc21 [A105, (Z)-2-(5-Fluoro-1-(4-fluorobenzylidene)-2-(4-(4-fluorophenoxy)benzyl)-1H-inden-3-yl)acetic acid] | ≥ 50% | ≥ 50% | ≥ 50% | ≥ 50% | ≥ 50% | ≥ 50% | ≥ 50% | ≥ 50% | ≥ 50% | ≥ 50% | > 80% | ≥ 50% | ≥ 50% | ≥ 50% | ≥ 50% |  | 
2 | O=C(O)CC1=C(Cc2ccc(Oc3ccc(F)cc3)cc2)/C(=C/C2CC2)c2ccc(F)cc21 [A106, (Z)-2-(1-(Cyclopropylmethylene)-5-fluoro-2-(4-(4-fluorophenoxy)benzyl)-1H-inden-3-yl)acetic acid] | < 30% | ≥ 50% | < 30% | ≥ 50% | 30 to 50% | ≥ 50% | < 30% | ≥ 50% | < 30% | ≥ 50% | > 80% | 30 to 50% | ≥ 50% | 30 to 50% | ≥ 50% |  | 
3 | O=C(O)CC1=C(Cc2ccc(Oc3ccc(F)cc3)cc2)/C(=C/c2ccc(C(F)(F)F)cc2)c2ccc(F)cc21 [A108, (Z)-2-(5-Fluoro-2-(4-(4-fluorophenoxy)benzyl)-1-(4-(trifluoromethyl)-benzylidene)-1H-inden-3-yl)acetic acid] | ≥ 50% | ≥ 50% | < 30% | ≥ 50% | ≥ 50% | ≥ 50% | < 30% | < 30% | ≥ 50% | ≥ 50% | > 80% | < 30% | ≥ 50% | ≥ 50% | ≥ 50% |  | 
4 | O=C(O)CC1=C(Cc2ccc(Oc3ccc(F)cc3)cc2)/C(=C/c2cccc(C(F)(F)F)c2)c2ccc(F)cc21 [A109, (Z)-2-(5-Fluoro-2-(4-(4-fluorophenoxy)benzyl)-1-(3-(trifluoromethyl)-benzylidene)-1H-inden-3-yl)acetic acid] | 30 to 50% | ≥ 50% | < 30% | < 30% | ≥ 50% | ≥ 50% | < 30% | < 30% | ≥ 50% | ≥ 50% | > 80% | < 30% | ≥ 50% | < 30% | ≥ 50% |  | 
5 | COc1ccc(/C=C2/C(Cc3ccc(Oc4ccc(F)cc4)cc3)=C(CC(=O)O)c3cc(F)ccc32)cc1 [A110, (Z)-2-(5-Fluoro-2-(4-(4-fluorophenoxy)benzyl)-1-(4-methoxybenzylidene)-1H-inden-3-yl)acetic acid] | < 30% | ≥ 50% | < 30% | ≥ 50% | < 30% | ≥ 50% | < 30% | < 30% | ≥ 50% | ≥ 50% | > 80% | < 30% | ≥ 50% | < 30% | ≥ 50% |  | 
6 | O=C(O)CC1=C(Cc2ccc(Oc3ccc(F)cc3)cc2)/C(=C/c2ccc(CN3CCOCC3)cc2)c2ccc(F)cc21 [A113, (Z)-2-(5-Fluoro-2-(4-(4-fluorophenoxy)benzyl)-1-(4-(morpholinomethyl)-benzylidene)-1H-inden-3-yl)acetic acid] | < 30% | < 30% | ≥ 50% | ≥ 50% | 30 to 50% | 30 to 50% | ≥ 50% | ≥ 50% | ≥ 50% | ≥ 50% | > 80% | ≥ 50% | ≥ 50% | < 30% | < 30% | < 30% | < 30%
7 | CC1=C(CCO)c2cc(F)ccc2/C1=C\c1ccc(Oc2ccc(F)cc2)cc1 [A201, (Z)-2-(5-Fluoro-1-(4-(4-fluorophenoxy)benzylidene)-2-methyl-1H-inden-3-yl)-ethan-1-ol] | ≥ 50% | ≥ 50% | ≥ 50% | ≥ 50% | 30 to 50% | ≥ 50% | ≥ 50% | ≥ 50% | 30 to 50% | ≥ 50% | < 30% | 30 to 50% | ≥ 50% | < 30% | ≥ 50% |  | 
